Results published in the supplement of paper PMC10733146.

What was measured:
Assay in all cases: viability relative to DMSO control (fraction); higher = less drug effect (more viable cells)
Settings in all cases: 48 h
[1] = system: primary BL patient cells (S005)
Outline: (§1)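 Viability was quantified by CellTiter-Glo luminescence and related to the median of 16 inner DMSO wells. Before that, primary mononuclear tumour cells, fresh or cryopreserved and Ficoll-isolated from blood or bone marrow or prepared from processed lymph node, were plated at 4 × 10^4 cells per well in 384-well plates containing pre-plated compounds at five concentrations, one well each. Plates were incubated in RPMI-1640 with penicillin/streptomycin, L-glutamine and human serum at 37 °C and 5% CO2 for 48 h.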

[2] = system: primary MCL patient cells (S053)
Outline: as §1

[3] = system: primary AML patient cells (S012)
Outline: as §1

[4] = system: primary AML patient cells (S085)
Outline: as §1

[5] = system: primary AML patient cells (S060)
Outline: as §1

[6] = system: primary AML patient cells (S011)
Outline: as §1

[7] = system: primary AML patient cells (S021)
Outline: as §1

[8] = system: primary B-PLL patient cells (S016)
Outline: as §1

[9] = system: primary MCL patient cells (S068)
Outline: as §1

[10] = system: primary MCL patient cells (S063)
Outline: as §1

[11] = system: primary AML patient cells (S056)
Outline: as §1

[12] = system: primary AML patient cells (S017)
Outline: as §1

[13] = system: primary FL patient cells (S087)
Outline: as §1

[14] = system: primary CLL patient cells (S031)
Outline: as §1

[15] = system: primary ALL patient cells (S048)
Outline: as §1

[16] = system: primary FL patient cells (S022)
Outline: as §1

[17] = system: primary ALL patient cells (S088)
Outline: as §1

[18] = system: primary AML patient cells (S081)
Outline: as §1

[19] = system: primary CLL patient cells (S043)
Outline: as §1

[20] = system: primary AML patient cells (S006)
Outline: as §1

COc1cccc2c1C(=O)c1c(O)c3c(c(O)c1C2=O)C[C@@](O)(C(C)=O)C[C@@H]3O[C@H]1C[C@H](N)[C@H](O)[C@H](C)O1 [Daunorubicin]
viability ([1]; 0.0016 µM): 1.06
viability ([1]; 0.008 µM): 1.09
viability ([1]; 0.04 µM): 1.02
viability ([1]; 0.2 µM): 0.929
viability ([1]; 1 µM): 0.716
viability ([2]; 0.0016 µM): 1.12
viability ([2]; 0.008 µM): 0.692
viability ([2]; 0.04 µM): 0.363
viability ([2]; 0.2 µM): 0.307
viability ([2]; 1 µM): 0.446
viability ([3]; 0.0016 µM): 1
viability ([3]; 0.008 µM): 1.01
viability ([3]; 0.04 µM): 0.968
viability ([3]; 0.2 µM): 0.922
viability ([3]; 1 µM): 0.083
viability ([4]; 0.0016 µM): 1.27
viability ([4]; 0.008 µM): 0.865
viability ([4]; 0.04 µM): 0.312
viability ([4]; 0.2 µM): 0.164
viability ([4]; 1 µM): 0.0173
viability ([5]; 0.0016 µM): 1.16
viability ([5]; 0.008 µM): 1.14
viability ([5]; 0.04 µM): 1.07
viability ([5]; 0.2 µM): 1.14
viability ([5]; 1 µM): 0.0333
viability ([6]; 0.0016 µM): 1.02
viability ([6]; 0.008 µM): 1.07
viability ([6]; 0.04 µM): 0.409
viability ([6]; 0.2 µM): 0.0898
viability ([6]; 1 µM): 0.0206
viability ([7]; 0.0016 µM): 1.09
viability ([7]; 0.008 µM): 0.972
viability ([7]; 0.04 µM): 0.424
viability ([7]; 0.2 µM): 0.216
viability ([7]; 1 µM): 0.145
viability ([8]; 0.0016 µM): 1.21
viability ([8]; 0.008 µM): 0.74
viability ([8]; 0.04 µM): 0.0721
viability ([8]; 0.2 µM): 0.0359
viability ([8]; 1 µM): 0.0137
viability ([9]; 0.0016 µM): 1.18
viability ([9]; 0.008 µM): 0.943
viability ([9]; 0.04 µM): 0.449
viability ([9]; 0.2 µM): 0.252
viability ([9]; 1 µM): 0.0233
viability ([10]; 0.0016 µM): 1.2
viability ([10]; 0.008 µM): 1.14
viability ([10]; 0.04 µM): 0.979
viability ([10]; 0.2 µM): 0.528
viability ([10]; 1 µM): 0.0178
viability ([11]; 0.0016 µM): 0.96
viability ([11]; 0.008 µM): 0.881
viability ([11]; 0.04 µM): 0.258
viability ([11]; 0.2 µM): 0.146
viability ([11]; 1 µM): 0.0683
viability ([12]; 0.0016 µM): 1.1
viability ([12]; 0.008 µM): 1.13
viability ([12]; 0.04 µM): 1.07
viability ([12]; 0.2 µM): 0.745
viability ([12]; 1 µM): 0.0449
viability ([13]; 0.0016 µM): 1.13
viability ([13]; 0.008 µM): 1.03
viability ([13]; 0.04 µM): 0.856
viability ([13]; 0.2 µM): 0.693
viability ([13]; 1 µM): 0.588
viability ([14]; 0.0016 µM): 0.982
viability ([14]; 0.008 µM): 0.809
viability ([14]; 0.04 µM): 0.265
viability ([14]; 0.2 µM): 0.0431
viability ([14]; 1 µM): 0.0162
viability ([15]; 0.0016 µM): 1.02
viability ([15]; 0.008 µM): 0.731
viability ([15]; 0.04 µM): 0.12
viability ([15]; 0.2 µM): 0.0694
viability ([15]; 1 µM): 0.0144
viability ([16]; 0.0016 µM): 0.966
viability ([16]; 0.008 µM): 0.964
viability ([16]; 0.04 µM): 0.803
viability ([16]; 0.2 µM): 0.331
viability ([16]; 1 µM): 0.304
viability ([17]; 0.0016 µM): 1.13
viability ([17]; 0.008 µM): 0.849
viability ([17]; 0.04 µM): 0.235
viability ([17]; 0.2 µM): 0.0841
viability ([17]; 1 µM): 0.0273
viability ([18]; 0.0016 µM): 1.07
viability ([18]; 0.008 µM): 1.16
viability ([18]; 0.04 µM): 1.15
viability ([18]; 0.2 µM): 1.2
viability ([18]; 1 µM): 0.0266
viability ([19]; 0.0016 µM): 1.11
viability ([19]; 0.008 µM): 1.12
viability ([19]; 0.04 µM): 0.834
viability ([19]; 0.2 µM): 0.33
viability ([19]; 1 µM): 0.0261
viability ([20]; 0.0016 µM): 1.19
viability ([20]; 0.008 µM): 0.923
viability ([20]; 0.04 µM): 0.248
viability ([20]; 0.2 µM): 0.075
viability ([20]; 1 µM): 0.0282

Nc1ncn([C@H]2C[C@H](O)[C@@H](CO)O2)c(=O)n1 [Decitabine (Dacogen)]
viability ([1]; 0.024 µM): 0.833
viability ([1]; 0.12 µM): 1.27
viability ([1]; 0.6 µM): 0.828
viability ([1]; 3 µM): 1.27
viability ([1]; 15 µM): 0.8
viability ([2]; 0.024 µM): 0.969
viability ([2]; 0.12 µM): 0.824
viability ([2]; 0.6 µM): 0.878
viability ([2]; 3 µM): 0.807
viability ([2]; 15 µM): 0.735
viability ([3]; 0.024 µM): 1
viability ([3]; 0.12 µM): 0.92
viability ([3]; 0.6 µM): 0.943
viability ([3]; 3 µM): 0.945
viability ([3]; 15 µM): 0.929
viability ([4]; 0.024 µM): 0.939
viability ([4]; 0.12 µM): 0.904
viability ([4]; 0.6 µM): 0.909
viability ([4]; 3 µM): 0.807
viability ([4]; 15 µM): 0.687
viability ([5]; 0.024 µM): 1.01
viability ([5]; 0.12 µM): 0.975
viability ([5]; 0.6 µM): 1.02
viability ([5]; 3 µM): 0.99
viability ([5]; 15 µM): 1.01
viability ([6]; 0.024 µM): 0.963
viability ([6]; 0.12 µM): 0.887
viability ([6]; 0.6 µM): 1.1
viability ([6]; 3 µM): 0.887
viability ([6]; 15 µM): 0.956
viability ([7]; 0.024 µM): 1.17
viability ([7]; 0.12 µM): 0.973
viability ([7]; 0.6 µM): 1.03
viability ([7]; 3 µM): 0.942
viability ([7]; 15 µM): 0.818
viability ([8]; 0.024 µM): 0.927
viability ([8]; 0.12 µM): 0.83
viability ([8]; 0.6 µM): 0.972
viability ([8]; 3 µM): 0.874
viability ([8]; 15 µM): 0.88
viability ([9]; 0.024 µM): 0.948
viability ([9]; 0.12 µM): 0.974
viability ([9]; 0.6 µM): 0.926
viability ([9]; 3 µM): 0.938
viability ([9]; 15 µM): 0.775
viability ([10]; 0.024 µM): 1.03
viability ([10]; 0.12 µM): 0.985
viability ([10]; 0.6 µM): 1.03
viability ([10]; 3 µM): 0.974
viability ([10]; 15 µM): 0.977
viability ([11]; 0.024 µM): 0.971
viability ([11]; 0.12 µM): 0.876
viability ([11]; 0.6 µM): 0.912
viability ([11]; 3 µM): 0.8
viability ([11]; 15 µM): 0.766
viability ([12]; 0.024 µM): 1.09
viability ([12]; 0.12 µM): 0.954
viability ([12]; 0.6 µM): 1.16
viability ([12]; 3 µM): 0.918
viability ([12]; 15 µM): 1.08
viability ([13]; 0.024 µM): 0.969
viability ([13]; 0.12 µM): 0.89
viability ([13]; 0.6 µM): 0.981
viability ([13]; 3 µM): 0.864
viability ([13]; 15 µM): 0.966
viability ([14]; 0.024 µM): 1.02
viability ([14]; 0.12 µM): 0.916
viability ([14]; 0.6 µM): 1.04
viability ([14]; 3 µM): 0.869
viability ([14]; 15 µM): 0.965
viability ([15]; 0.024 µM): 0.967
viability ([15]; 0.12 µM): 0.89
viability ([15]; 0.6 µM): 0.938
viability ([15]; 3 µM): 0.843
viability ([15]; 15 µM): 0.82
viability ([16]; 0.024 µM): 1.12
viability ([16]; 0.12 µM): 0.952
viability ([16]; 0.6 µM): 1.01
viability ([16]; 3 µM): 0.937
viability ([16]; 15 µM): 0.962
viability ([17]; 0.024 µM): 0.978
viability ([17]; 0.12 µM): 0.886
viability ([17]; 0.6 µM): 0.982
viability ([17]; 3 µM): 0.778
viability ([17]; 15 µM): 0.799
viability ([18]; 0.024 µM): 1.05
viability ([18]; 0.12 µM): 0.898
viability ([18]; 0.6 µM): 1.05
viability ([18]; 3 µM): 0.912
viability ([18]; 15 µM): 0.931
viability ([19]; 0.024 µM): 0.965
viability ([19]; 0.12 µM): 0.976
viability ([19]; 0.6 µM): 0.975
viability ([19]; 3 µM): 0.959
viability ([19]; 15 µM): 0.899
viability ([20]; 0.024 µM): 0.971
viability ([20]; 0.12 µM): 0.877
viability ([20]; 0.6 µM): 1
viability ([20]; 3 µM): 0.747
viability ([20]; 15 µM): 0.716
